In patent publication US20220081412A1, “QUINOLINYL-PYRAZINE-CARBOXAMIDE COMPOUNDS AND USES THEREOF” (The Regents of the University of Michigan, priority 2018, published 2022):

System: cancer cells
Assay: Proteomics study (up- and downregulated proteins)
Format: cell-based
Settings: for Hydroxymethylglutaryl-CoA synthase, cytoplasmic (HMGCS1) protein: proteomics
From the text: Proteomics provide a comprehensive understanding of mechanisms that are responsible for the cytotoxicity of anticancer drugs, and based on the expression of protein helps in identification of drug targets (see, Wang, Y.; et al., Met Based Drugs. 2008, 1-9). One of the disadvantages of proteomics is membrane-bound proteins due to their poor solubility and low abundance, are disproportionally represented in proteome profiles (see, Smith, C. Nature, 2004, 428, 225-231). Identification of target proteins utilizing proteomics technique coupled with mass spectrometry is an evolving technology platform that has the potential to identify novel proteins involved in key biological processes in cells. There are two mass spectrometry-based methods currently used for protein profiling. The use of high-resolution two-dimensional electrophoresis to separate proteins from different samples, followed by selection and staining of differentially expressed proteins to be identified by mass spectrometry is the more established method. In the second approach isotope coded affinity tag (ICAT) reagents are utilized to differentially label proteins from two different complex mixtures, that are then digested to yield labeled peptides. The labeled mixtures are then combined, the peptides separated by multidimensional liquid chromatography and analyzed by tandem mass spectrometry. In this method, complexity of the mixtures omitting the non-cysteine residues is reduced as here the cysteine residues of proteins get covalently attached to the ICAT reagent. Proteomics coupled with bioinformatics process the raw mass spectral data into protein data (see, Yu, L. R.; Essentials of Genomic and Personalized Medicine 2010, 89-96). The most critical software programs take peptide mapping and/or tandem MS results and determine the protein or peptide sequence that are most closely related to the experimental data. One of the more intriguing MS-based proteomic techniques is to identify the proteins which are overexpressed thus aids in identification of the target protein of the given drug. There are several examples reported in literature about successful application of Bru-seq and proteomics for identification of mechanism of action of drugs.
It is the second step in the mevalonate-dependent isoprenoid biosynthesis pathway. HMG-CoA is an intermediate in both cholesterol synthesis and ketogenesis. Thus, here the proteomics results are in accordance with the Bru-seq results, implying “cholesterol biosynthesis pathway” as key pathway activated by these series of compounds.
Among its related pathways are regulation of cholesterol biosynthesis by SREBP (SREBF) and terpenoid backbone biosynthesis.

[1] = protein: 28S ribosomal protein S16, mitochondrial, downregulated
[2] = protein: 28S ribosomal protein S17, mitochondrial, downregulated
[3] = protein: 28S ribosomal protein S18b, mitochondrial, downregulated
[4] = protein: 28S ribosomal protein S22, mitochondrial, downregulated
[5] = protein: 28S ribosomal protein S25, mitochondrial, downregulated
[6] = protein: 40S ribosomal protein S8, upregulated
[7] = protein: 40S ribosomal protein S26, upregulated
[8] = protein: 40S ribosomal protein S30, upregulated
[9] = protein: 60S ribosomal protein L19, upregulated
[10] = protein: 60S ribosomal protein L27a, upregulated
[11] = protein: 60S ribosomal protein L36a-like, upregulated
[12] = protein: 60S ribosomal protein L37, upregulated
[13] = protein: Aconitate hydratase, mitochondrial, downregulated
[14] = protein: Acyl-CoA desaturase, upregulated
[15] = protein: Alanine aminotransferase 2, upregulated
[16] = protein: Aldehyde dehydrogenase X, downregulated
[17] = protein: Apolipoprotein A-I, upregulated
[18] = protein: Apolipoprotein B-100, upregulated
[19] = protein: Apolipoprotein C-III, upregulated
[20] = protein: Beta-2-glycoprotein 1, upregulated
[21] = protein: Bleomycin hydrolase, upregulated
[22] = protein: Constitutive coactivator of peroxisome proliferator-activated receptor gamma, downregulated
[23] = protein: Copper-transporting ATPase 2, upregulated
[24] = protein: D-dopachrome decarboxylase, downregulated
[25] = protein: DNA topoisomerase 2-alpha, downregulated
[26] = protein: Deoxyribonuclease-2-alpha, upregulated
[27] = protein: Dermcidin, upregulated
[28] = protein: Diphthine methyltransferase, upregulated
[29] = protein: E3 ubiquitin-protein ligase TRIM69, upregulated
[30] = protein: Elongation factor G, mitochondrial, downregulated
[31] = protein: FAST kinase domain-containing protein 5, mitochondrial, downregulated
[32] = protein: Filamin-C, upregulated
[33] = protein: GH3 domain-containing protein, upregulated
[34] = protein: Histone H1.2, downregulated
[35] = protein: Hydroxymethylglutaryl-CoA synthase, cytoplasmic, upregulated
[36] = protein: Interleukin-36 beta, downregulated
[37] = protein: Iron-responsive element-binding protein 2, upregulated
[38] = protein: Keratin, type I cytoskeletal 20, downregulated
[39] = protein: Kinesin-like protein KIF27, upregulated
[40] = protein: LanC-like protein 2, downregulated
[41] = protein: MBT domain-containing protein 1, downregulated
[42] = protein: Mixed lineage kinase domain-like protein, upregulated
[43] = protein: Muellerian-inhibiting factor, upregulated
[44] = protein: NADH dehydrogenase [ubiquinone] 1 alpha subcomplex subunit 6, downregulated
[45] = protein: NADH dehydrogenase [ubiquinone] iron-sulfur protein 4, mitochondrial, downregulated
[46] = protein: NADH-ubiquinone oxidoreductase 75 kDa subunit, mitochondrial, downregulated
[47] = protein: Nucleolar transcription factor 1, downregulated
[48] = protein: Phosphatidylserine synthase 1, upregulated
[49] = protein: Proliferation marker protein Ki-67, downregulated
[50] = protein: Protein FAM83H, downregulated
[51] = protein: Protein FAM177A1, upregulated
[52] = protein: Protein PIMREG, upregulated
[53] = protein: Protein cornichon homolog 4, upregulated
[54] = protein: Putative ankyrin repeat domain-containing protein 31, upregulated
[55] = protein: RNA-binding motif protein, X chromosome, downregulated
[56] = protein: Scaffold attachment factor B1, downregulated
[57] = protein: Scaffold attachment factor B2, downregulated
[58] = protein: Sequestosome-1, upregulated
[59] = protein: Serine/threonine-protein kinase PLK4, upregulated
[60] = protein: Squalene synthase, upregulated
[61] = protein: Transcription elongation factor 1 homolog, downregulated

CCN(CC)CCCC(C)Nc1cnc(C(=O)Nc2cc(C)cc3cccnc23)cn1 (stereo not drawn) [J4, 5-((5-(diethylamino)pentan-2-yl)amino)-N-(6-methylquinolin-8-yl)pyrazine-2-carboxamide]
Abundance ratio [1]: 0.403
Abundance ratio (log2) [1]: −1.31
Abundance ratio [2]: 0.452
Abundance ratio (log2) [2]: −1.15
Abundance ratio [3]: 0.337
Abundance ratio (log2) [3]: −1.57
Abundance ratio [4]: 0.432
Abundance ratio (log2) [4]: −1.21
Abundance ratio [5]: 0.402
Abundance ratio (log2) [5]: −1.32
Abundance ratio [6]: 1.777
Abundance ratio (log2) [6]: 0.83
Abundance ratio [7]: 1.717
Abundance ratio (log2) [7]: 0.78
Abundance ratio [8]: 1.649
Abundance ratio (log2) [8]: 0.72
Abundance ratio [9]: 1.761
Abundance ratio (log2) [9]: 0.82
Abundance ratio [10]: 1.713
Abundance ratio (log2) [10]: 0.78
Abundance ratio [11]: 1.623
Abundance ratio (log2) [11]: 0.7
Abundance ratio [12]: 1.808
Abundance ratio (log2) [12]: 0.85
Abundance ratio [13]: 0.489
Abundance ratio (log2) [13]: −1.03
Abundance ratio [14]: 2.148
Abundance ratio (log2) [14]: 1.1
Abundance ratio [15]: 1.616
Abundance ratio (log2) [15]: 0.69
Abundance ratio [16]: 0.278
Abundance ratio (log2) [16]: −1.85
Abundance ratio [17]: 1.891
Abundance ratio (log2) [17]: 0.92
Abundance ratio [18]: 2.151
Abundance ratio (log2) [18]: 1.1
Abundance ratio [19]: 2.072
Abundance ratio (log2) [19]: 1.05
Abundance ratio [20]: 1.622
Abundance ratio (log2) [20]: 0.7
Abundance ratio [21]: 1.845
Abundance ratio (log2) [21]: 0.88
Abundance ratio [22]: 0.419
Abundance ratio (log2) [22]: −1.25
Abundance ratio [23]: 1.807
Abundance ratio (log2) [23]: 0.85
Abundance ratio [24]: 0.487
Abundance ratio (log2) [24]: −1.04
Abundance ratio [25]: 0.381
Abundance ratio (log2) [25]: −1.39
Abundance ratio [26]: 1.649
Abundance ratio (log2) [26]: 0.72
Abundance ratio [27]: 2.454
Abundance ratio (log2) [27]: 1.3
Abundance ratio [28]: 1.633
Abundance ratio (log2) [28]: 0.71
Abundance ratio [29]: 1.906
Abundance ratio (log2) [29]: 0.93
Abundance ratio [30]: 0.245
Abundance ratio (log2) [30]: −2.03
Abundance ratio [31]: 0.382
Abundance ratio (log2) [31]: −1.39
Abundance ratio [32]: 2.026
Abundance ratio (log2) [32]: 1.02
Abundance ratio [33]: 1.742
Abundance ratio (log2) [33]: 0.8
Abundance ratio [34]: 0.462
Abundance ratio (log2) [34]: −1.11
Abundance ratio [35]: 1.944
Abundance ratio (log2) [35]: 0.96
Abundance ratio [36]: 0.462
Abundance ratio (log2) [36]: −1.12
Abundance ratio [37]: 2.136
Abundance ratio (log2) [37]: 1.09
Abundance ratio [38]: 0.439
Abundance ratio (log2) [38]: −1.19
Abundance ratio [39]: 1.89
Abundance ratio (log2) [39]: 0.92
Abundance ratio [40]: 0.327
Abundance ratio (log2) [40]: −1.61
Abundance ratio (protein: Lumican, upregulated): 1.612
Abundance ratio (log2) (protein: Lumican, upregulated): 0.69
Abundance ratio [41]: 0.233
Abundance ratio (log2) [41]: −2.1
Abundance ratio [42]: 1.861
Abundance ratio (log2) [42]: 0.9
Abundance ratio [43]: 1.824
Abundance ratio (log2) [43]: 0.87
Abundance ratio [44]: 0.473
Abundance ratio (log2) [44]: −1.08
Abundance ratio [45]: 0.468
Abundance ratio (log2) [45]: −1.1
Abundance ratio [46]: 0.488
Abundance ratio (log2) [46]: −1.03
Abundance ratio [47]: 0.484
Abundance ratio (log2) [47]: −1.05
Abundance ratio [48]: 1.946
Abundance ratio (log2) [48]: 0.96
Abundance ratio [49]: 0.474
Abundance ratio (log2) [49]: −1.08
Abundance ratio [50]: 0.46
Abundance ratio (log2) [50]: −1.12
Abundance ratio [51]: 3.085
Abundance ratio (log2) [51]: 1.63
Abundance ratio [52]: 1.711
Abundance ratio (log2) [52]: 0.77
Abundance ratio [53]: 1.656
Abundance ratio (log2) [53]: 0.73
Abundance ratio [54]: 1.786
Abundance ratio (log2) [54]: 0.84
Abundance ratio [55]: 0.441
Abundance ratio (log2) [55]: −1.18
Abundance ratio [56]: 0.401
Abundance ratio (log2) [56]: −1.32
Abundance ratio [57]: 0.405
Abundance ratio (log2) [57]: −1.3
Abundance ratio [58]: 1.69
Abundance ratio (log2) [58]: 0.76
Abundance ratio [59]: 3.158
Abundance ratio (log2) [59]: 1.66
Abundance ratio [60]: 1.597
Abundance ratio (log2) [60]: 0.68
Abundance ratio [61]: 0.364
Abundance ratio (log2) [61]: −1.46
Hydroxymethylglutaryl-CoA synthase, cytoplasmic (HMGCS1) protein: upregulation
Hydroxymethylglutaryl-CoA synthase, cytoplasmic (HMGCS1) protein (listed as JR-1-235): upregulated
